Measurements taken from ChEMBL document CHEMBL1201862, “PubChem BioAssay data set” (2004).
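Where inhibition never reached the appropriate level, the endpoint shown equals the highest concentration tested. Otherwise, values were interpolated linearly from a five-concentration, 48-hour dose response in 96-well plates. The concentration for 50% growth inhibition is given as GI50.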 The source made the active and inactive calls. Cut-off read from the data, not from the text of the source: active = GI50 up to about 1.1 µM and inactive = higher.

Columns and labels:
Experiment in all cases: NCI anticancer screen, dose series, 48 h
[1] = test system: COLO 205
[2] = test system: EKVX
[3] = test system: HCT-116
[4] = test system: HCT-15
[5] = test system: HOP-62
[6] = test system: HOP-92
[7] = test system: KM12
[8] = test system: Malme-3M
[9] = test system: NCI-H23
[10] = test system: NCI-H460
[11] = test system: NCI-H522
[12] = test system: OVCAR-4
[13] = test system: OVCAR-5
[14] = test system: RXF 393
[15] = test system: SK-MEL-5
[16] = test system: SK-OV-3
[17] = test system: SW-620
[18] = test system: MDA-N
[19] = test system: NCI/ADR-RES
[20] = test system: DU-145

Structure (SMILES)	GI50 [1]	GI50 [2]	GI50 [3]	GI50 [4] [µM]	GI50 [5]	GI50 [6]	GI50 [7]	GI50 [8]	GI50 [9]	GI50 [10]	GI50 [11]	GI50 [12]	GI50 [13]	GI50 [14]	GI50 [15]	GI50 [16]	GI50 [17]	GI50 [18]	GI50 [19]	GI50 [20]
Cc1c(NC(=S)NC(=O)c2ccc([N+](=O)[O-])cc2)c(=O)n(-c2ccccc2)n1C	> 100 µM (inactive)	> 100 µM (inactive)	> 100 µM (inactive)	> 100	> 100 µM (inactive)	> 100 µM (inactive)	> 100 µM (inactive)	> 100 µM (inactive)	> 100 µM (inactive)	> 100 µM (inactive)	> 100 µM (inactive)	> 100 µM (inactive)	> 100 µM (inactive)	> 100 µM (inactive)	> 100 µM (inactive)	> 100 µM (inactive)	> 100 µM (inactive)			
CCOc1ccc(/N=C/c2ccc3ccccc3n2)cc1	> 100 µM (inactive)	> 100 µM (inactive)	> 100 µM (inactive)	> 100	> 100 µM (inactive)	> 75.3 µM (inactive)	> 100 µM (inactive)	> 100 µM (inactive)	> 100 µM (inactive)	> 100 µM (inactive)	> 100 µM (inactive)	> 100 µM (inactive)	> 100 µM (inactive)	> 100 µM (inactive)	> 100 µM (inactive)	> 100 µM (inactive)	> 100 µM (inactive)			
BrC1=CC=C2NCCCCCC/N=C3\C=CC(Br)=CC=C3NCCCCCC/N=C\2C=C1		> 25.5 µM (inactive)	> 25.5 µM (inactive)	> 25.5	> 25.5 µM (inactive)	> 25.5 µM (inactive)	> 25.5 µM (inactive)	> 25.5 µM (inactive)	> 25.5 µM (inactive)	> 25.5 µM (inactive)	> 25.5 µM (inactive)	> 25.5 µM (inactive)	> 25.5 µM (inactive)	> 25.5 µM (inactive)	> 25.5 µM (inactive)	> 25.5 µM (inactive)	> 25.5 µM (inactive)			
CN(C)/C=N\c1nncc2[nH]cnc12	> 100 µM (inactive)	> 100 µM (inactive)	87.3 µM (inactive)	> 100	60.1 µM (inactive)	19.9 µM (inactive)	> 100 µM (inactive)	68.7 µM (inactive)	> 100 µM (inactive)		> 100 µM (inactive)	> 100 µM (inactive)	> 100 µM (inactive)		> 100 µM (inactive)	> 100 µM (inactive)	82.6 µM (inactive)	79.8 µM (inactive)	> 100 µM (inactive)	
CCc1cccc(CC)c1NC(=O)C1=C(C)NC(C)=C(C(=O)Nc2c(CC)cccc2CC)C1c1ccc([N+](=O)[O-])cc1	18 µM (inactive)	23.5 µM (inactive)	15.1 µM (inactive)		57.5 µM (inactive)	10.3 µM (inactive)	18 µM (inactive)	17.3 µM (inactive)	22.8 µM (inactive)	17.5 µM (inactive)	13.3 µM (inactive)	12.3 µM (inactive)	44.7 µM (inactive)	17.1 µM (inactive)	15.1 µM (inactive)	38.1 µM (inactive)	17.7 µM (inactive)			
CC1=C(O)C(=O)C2C(=O)C1C(C)C2c1ccccc1 (centres undefined)	> 100 µM (inactive)	> 100 µM (inactive)		> 100	> 100 µM (inactive)	> 100 µM (inactive)	> 100 µM (inactive)	> 100 µM (inactive)	> 100 µM (inactive)		> 100 µM (inactive)	> 100 µM (inactive)	> 100 µM (inactive)	> 100 µM (inactive)	> 100 µM (inactive)	> 100 µM (inactive)	> 100 µM (inactive)			
C[C@@H]1OC(=O)C[C@H]2CC(=O)N(CCC3CN(S(=O)(=O)C(F)(F)F)c4ccc(Cc5ccc6c(c5)C(CCN5C[C@H]7[C@@H](CC(=O)O[C@H]7C)CC5=O)CN6S(=O)(=O)C(F)(F)F)cc43)C[C@@H]21 (some centres undefined)	> 100 µM (inactive)	> 100 µM (inactive)	> 100 µM (inactive)	> 100	> 100 µM (inactive)	> 100 µM (inactive)	> 100 µM (inactive)	> 100 µM (inactive)	> 100 µM (inactive)	> 100 µM (inactive)		> 100 µM (inactive)	> 100 µM (inactive)	> 100 µM (inactive)	> 100 µM (inactive)	> 100 µM (inactive)	> 100 µM (inactive)		> 100 µM (inactive)	> 100 µM (inactive)
CS(=O)(=O)O[C@H]1CN2C[C@@H](O)[C@@H](O)[C@H]2[C@H]1CO.[B]	> 100 µM (inactive)	> 100 µM (inactive)	> 100 µM (inactive)	> 100	> 100 µM (inactive)		> 100 µM (inactive)	> 100 µM (inactive)	> 100 µM (inactive)	> 100 µM (inactive)		> 100 µM (inactive)	> 100 µM (inactive)	> 100 µM (inactive)	> 100 µM (inactive)	> 100 µM (inactive)	> 100 µM (inactive)		> 100 µM (inactive)	> 100 µM (inactive)
O=S(=O)(Sc1ccc(Cl)cc1)c1ccc(Cl)cc1	17.7 µM (inactive)	15.6 µM (inactive)	14.9 µM (inactive)	17.7	15.3 µM (inactive)	20.1 µM (inactive)	14.7 µM (inactive)	17.5 µM (inactive)	16 µM (inactive)	17.1 µM (inactive)	17.1 µM (inactive)	20.6 µM (inactive)	19.9 µM (inactive)	15.7 µM (inactive)	15.2 µM (inactive)	44.7 µM (inactive)	17.6 µM (inactive)			
O=C1c2ccccc2C(=O)N1CCN(CCN1C(=O)c2ccccc2C1=O)Cc1ccccc1	> 100 µM (inactive)	> 100 µM (inactive)	> 100 µM (inactive)	> 100	> 100 µM (inactive)	68.2 µM (inactive)	> 100 µM (inactive)		> 100 µM (inactive)	> 100 µM (inactive)	> 100 µM (inactive)	> 100 µM (inactive)		> 100 µM (inactive)	> 100 µM (inactive)	> 100 µM (inactive)	> 100 µM (inactive)			
C[C@]12CCc3nonc3C1CC[C@@H]1C2CC[C@]2(C)C(=O)/C(=N\O)CC12 (some centres undefined)	54.3 µM (inactive)	> 100 µM (inactive)	> 100 µM (inactive)	> 100	> 100 µM (inactive)	> 100 µM (inactive)	> 100 µM (inactive)	> 100 µM (inactive)	> 100 µM (inactive)	> 100 µM (inactive)	4.66 µM (inactive)	48.2 µM (inactive)	> 100 µM (inactive)	3.87 µM (inactive)	> 100 µM (inactive)	> 100 µM (inactive)	> 100 µM (inactive)			
COC(=O)c1[nH]c(=S)[nH]c(=O)c1-c1ccc(Cl)cc1	> 50 µM (inactive)	> 50 µM (inactive)	> 50 µM (inactive)	> 50	> 50 µM (inactive)	> 50 µM (inactive)	> 50 µM (inactive)	> 50 µM (inactive)	> 50 µM (inactive)	> 50 µM (inactive)	> 50 µM (inactive)	> 50 µM (inactive)	> 50 µM (inactive)	> 50 µM (inactive)	> 50 µM (inactive)	> 50 µM (inactive)	> 50 µM (inactive)			
O=c1c2ccccc2[nH]c2c(Cl)cc(Cl)c(N3CCCCC3)c12	37.8 µM (inactive)	28.9 µM (inactive)	46.3 µM (inactive)	44.8	34 µM (inactive)		19.1 µM (inactive)		24.1 µM (inactive)		22.1 µM (inactive)	71.6 µM (inactive)	34.5 µM (inactive)		34.3 µM (inactive)	62.4 µM (inactive)	35.4 µM (inactive)	24.3 µM (inactive)	25.6 µM (inactive)	
CS(=O)(=O)CC1=Nc2nnc(CCCCCCCc3nnc4n3C(=O)C(CS(C)(=O)=O)=N4)n2C1=O	> 100 µM (inactive)	> 100 µM (inactive)	> 100 µM (inactive)	> 100	> 100 µM (inactive)	> 100 µM (inactive)	> 100 µM (inactive)	> 100 µM (inactive)	> 100 µM (inactive)	> 100 µM (inactive)	> 100 µM (inactive)		> 100 µM (inactive)	> 100 µM (inactive)	> 100 µM (inactive)	> 100 µM (inactive)	> 100 µM (inactive)			
Cc1nnc2n1N=C(c1ccccc1)C(c1ccccc1)S2 (centres undefined)	21.3 µM (inactive)	64 µM (inactive)	38.2 µM (inactive)	26.2	72.3 µM (inactive)	60.4 µM (inactive)	42.1 µM (inactive)	64.1 µM (inactive)	24.3 µM (inactive)	34.6 µM (inactive)	24.6 µM (inactive)	57.9 µM (inactive)	> 100 µM (inactive)	36.1 µM (inactive)	48.9 µM (inactive)	27.2 µM (inactive)	11.2 µM (inactive)			
Nc1nc(NNc2cccc(F)c2)cc(=O)[nH]1	23.3 µM (inactive)	> 100 µM (inactive)	24 µM (inactive)	42.5	25 µM (inactive)		22.4 µM (inactive)	74.8 µM (inactive)	48.3 µM (inactive)	44 µM (inactive)		51.6 µM (inactive)	> 100 µM (inactive)		42.7 µM (inactive)		31.2 µM (inactive)		44.9 µM (inactive)	81.3 µM (inactive)
Cc1cc(NC(=O)NC(=O)c2ccccc2[N+](=O)[O-])ccc1Oc1ncc(Cl)cn1	0.107 µM (active)		0.082 µM (active)	0.113	0.0581 µM (active)		0.0519 µM (active)	0.0231 µM (active)	0.222 µM (active)	0.0548 µM (active)	0.0402 µM (active)	14.1 µM (inactive)	16.5 µM (inactive)	0.0447 µM (active)	0.0362 µM (active)	0.0575 µM (active)	0.0501 µM (active)	< 0.01 µM (active)		1.81 µM (inactive)
